Experimental data as given in US20260124293A1 (priority 2022, published 2026).

Experiments:
Syrian hamsters = conditions: hamster, in vivo
K18-hACE2 mice = conditions: mouse, in vivo

Question: Which “animals that succumbed to the disease or reached termination criteria” value (Syrian hamsters) does the source give for “BetaCoV/Wuhan/IVDC-HB-01/2019 [SARS-CoV-2 WT]” here?
Answer: Its value is 75%.

Question: What about the mean bodyweight (Syrian hamsters) of the same substance?
Answer: The mean bodyweight was 84%.

Question: What about the body weight loss (K18-hACE2 mice) of the same substance?
Answer: The body weight loss was “associated with weight loss”.

Question: And the clinical signs (K18-hACE2 mice)?
Answer: Its clinical signs is “only WT exhibit clinical signs”.
